Measured values reported in patent US20200038411A1, “METHODS OF TREATING TE[…]” (priority 2017, published 2020).
Entries after “also recorded” stand apart in the source; their conditions may differ.

Legend:
[1] = men; upper range for testosterone administered as TU (lymphatic absorption); cited from earlier work
[2] = Blood collected into different tubes spiked with TU, measured T (LA Biomed experiments); type: in vitro ADME, human
Source text: Additionally, non-specific esterases in blood may lead to hydrolysis of testosterone undecanoate (TU) (and its metabolite DHTU) during the blood collection procedure used to collect serum or plasma for evaluating T, dihydrotestosterone (DHT), TU and dihydrotestosterone undecanoate (DHTU) concentrations. If the extent of hydrolysis ex vivo is significant (e.g., at high concentrations of circulating TU or DHTU), then serum or plasma values of T, DHT, TU and DHTU may not accurately reflect the true in vivo concentrations of these compounds (e.g., T and DHT values may be artificially high due to ex vivo conversion of TU to T or DHTU to DHT). It has previously been shown that the collection of blood in sodium fluoride (NaF) containing tubes (so called ‘gray tops’ in a clinical setting) interfered with the measurement of serum T with a 20% decrease in the measured serum T levels (Wang, et al, 2008). […] In addition, the measured T concentrations in fluoride-containing tubes decreased by about 12 to 25%. Lachance et al published an article in 2015 that concluded T must be analyzed in enzyme-inhibited (i.e., NaF containing) plasma or serum when TU is administered to subjects in an oral form.

[3] = In vitro conversion of TU to T in whole blood at ambient temperature; type: in vitro ADME; settings: human blood, conditions typical of harvesting serum, no enzyme inhibitors
Description: Testosterone undecanoate is metabolized into testosterone. Its degradation in whole blood into testosterone has been studied in conditions typically used in clinical trials.
The in vitro conversion of TU to T in whole blood samples at ambient temperature was investigated by harvesting approximately 50 mL of blood from subjects prior to their oral TU administration. Aliquots of the pretreatment whole blood were added to 5 Plain sample collection tubes each tube previously spiked with 1 of 5 selected concentrations of TU (0, 30, 100, 300 and 1000 ng/mL). After gentle mixing, the tubes were stored at room temperature (about 23° C.) for 30 minutes prior to separating serum. […]
The frozen samples were stored at −20° C. until assay. All samples from a single participant were analyzed in the same assay run. Serum and plasma from the different tubes were measured using the methods developed for serum. Both T and DHT were measured in the same assay and both TU and […] were analyzed in the same assay developed for serum measurements. […]
When serum is harvested in the absence of enzyme inhibitors, the hydrolysis of TU and DHTU to T and DHT occurs during whole blood collection and processing to serum. […] Thus, testosterone must be analyzed in enzyme-inhibited plasma when TU is the administered medication.

[4] = Single 316 mg oral TU dose, T concentration-time profiles by sample collection tube type; type: in vivo, human; settings: 3 hours post dose
Description: Each study participant received a single oral TU dose containing 316 mg TU immediately prior to a standardized breakfast meal comprised of 800 to 1000 calories containing approximately 30 g of fat or about 25 to 30 percent fat. Subjects were instructed to consume the entire breakfast meal in no more than 30 minutes. Blood samples were collected 30 minutes prior to oral TU administration and at 0 (pre-dose), and 1, 2, 3, 4, 5, 6, 7, 8, 9, 10, 11 and 12 hrs post-dose. Because of the timed sample collections, all except for one subject entered the clinical research unit around 7 AM and spend the study period of 12 to 14 hours in the unit. […]
Blood samples collected in tubes were kept at room temperature for 30 minutes then centrifuged at 4° C. for 20 minutes at >1000 g. For each blood collection tube, serum was separated promptly after centrifugation and equal quantities of serum were transferred into 2 appropriately labelled polypropylene tubes. […]
Blood samples collected in tubes were immediately kept on ice for 30 minutes then centrifuged at 4° C. for 20 minutes at >1000 g. For each blood collection tube, serum was separated promptly after centrifugation and equal quantities of serum were transferred into 2 appropriately labelled polypropylene tubes. […]
The frozen samples were stored at −20° C. until assay. All samples from a single participant were analyzed in the same assay run. […]

| SMILES | plasma half-life of testosterone [1] | increases in the measured T levels after spiking with TU ([2]; NaF+oxalate and NaF+EDTA tubes kept at 4° C. for 30 minutes, 0, 300 or 600 ng/ml TU) | increase in measured T concentrations (ex vivo conversion of TU to T) ([2]; addition of TU in excess of 500 ng/ml, standard 'red top' plain tubes without additives) | degradation (conversion) of TU to testosterone in whole blood [3] | difference in mean T concentration between the Plain tube type and the other tube types [4] | mean assayed T concentration of NaF tube types, less than the Plain tube type [4] |
| --- | --- | --- | --- | --- | --- | --- |
| C[C@]12CC[C@H]3[C@@H](CCC4=CC(=O)CC[C@@]43C)[C@@H]1CC[C@@H]2O [T, Testosterone] | 10 to 100 min |  |  |  |  |  |
| CCCCCCCCCCC(=O)O[C@H]1CC[C@H]2[C@@H]3CCC4=CC(=O)CC[C@]4(C)[C@H]3CC[C@]12C [TU, testosterone undecanoate] |  | minimal increases | 20 to 25% | degrades extensively; also recorded: extensive and continues over time | approximately 150 ng/dL | approximately 14% |
